Entries after “also recorded” stand apart in the source; their conditions may differ.
Legend:
Type in all cases: cell-based, human
[1] = system: VTA-like spheroids; experiment: FLIPR calcium activity with Cal6 dye, control compounds / DAMGO (Example 3); conditions: VTA-like spheroids in Cal6 dye; 10 μM DAMGO; day 21
Description: (§1) Viruses and dyes: To assess calcium activity, the calcium dye, Cal6 (Molecular Devices), and genetically encoded calcium indicator, GCaMP6f (Addgene, cat #100836-AAV9) were used. Cal6 was used according to manufacturer's instructions and 10 mL of maintenance media was added to each vial. Two hours before activity was recorded, half of the spheroid media was exchanged for media with Cal6. The plates were covered in foil and placed in the incubator at 37° C. during the 2-hour (hr) incubation period. Since all viruses used were adeno-associated viruses (AAV), they were added to the media on day 7 to allow for 2-weeks expression prior to recording or testing. All viruses were added to the media at 2e5 multiplicity of infection (MOI). GCaMP6f infection occurred via an adeno-associated virus serotype 9 (AAV9) expressed under the CAG promoter for expression in both neurons and astrocytes. Designer receptors exclusively activated by designer drugs (DREADDs) viruses were used to stimulate and inhibit neuronal activity within spheroids. Both viruses were retrograde AAVs expressed under the human Synapsin promoter for expression in neurons and fused with an mCherry fluorophore. The DREADDs viruses either inserted the designer receptor hM4D(Gi), an inhibitory G-protein coupled receptor, or hM3D(Gq), a stimulatory G-protein coupled receptor. Clozapine-N-oxide (CNO, Tocris cat #4936) was suspended in dimethyl sulfoxide (DMSO) and used as the designer drug to activate the DREADDs viruses. CNO was tested at 1 and 10 μM, with data reported from the 1 μM concentration.
(§2) Fluorescent Imaging plate Reader (FLIPR): The FLIPR Penta (Molecular Devices) was used to assess calcium fluorescence across the 384-well plate simultaneously and to observe changes after treatment with compounds. The evening before calcium activity was measured, plates were sealed with parafilm and centrifuged at 1485×g for 2-min to get spheroids to the bottom of the well in a centered position. On the day of recording, the plate used for recording was placed in the read plate position inside of the FLIPR following the 2-hour Cal6 incubation at 37° C. Standard filter sets were used for Cal6 imaging with excitation set at 470-495 and emission at 515-575 nm. Fluorescent image reads were taken every 0.6 seconds for all plates, with exposure time of 0.03 and 50% excitation intensity. Recordings from the initial seven plates consisted of 1000 reads and were 10-min recordings with 2.5 gain, while the final two plates consisted of 500 reads (5-min recordings) with a gain of 2. Baseline recordings were taken across all plates and, if applicable, more recordings were obtained 1-, 30-, 60-, and/or 90-min after compound treatment. In between recordings, plates were wrapped in foil and placed back in the incubator at 37° C.
DAMGO was reconstituted in water at a 1 mM concentration and diluted in media to 20 µM such that spheroids would be treated with a final concentration of 10 μM after the half media exchange. Two aspects of OUD were modeled, chronic treatment along with opioid withdrawal. […]
384 Pin Tool: A 384 well pin tool (Rexroth) was used to transfer compounds simultaneously to the spheroid plate. […] Compound transfer via the 384 well pin tool occurred after the baseline recordings with the fluorescent imaging plate reader (FLIPR). […]

[2] = system: PFC-like spheroids; experiment: FLIPR calcium activity with Cal6 dye, control compounds / DAMGO / AD compounds (Example 3); conditions: 10 μM DAMGO; for effect on peak count and peak spacing: recording 30-min later, then naloxone
Description: as §1, §2
DAMGO was reconstituted in water at a 1 mM concentration and diluted in media to 20 µM such that spheroids would be treated with a final concentration of 10 μM after the half media exchange. Two aspects of OUD were modeled, chronic treatment along with opioid withdrawal. For spheroids subjected to chronic DAMGO treatment, 20 μM DAMGO in maintenance media was added via half media exchange beginning on day 10, with treatments occurring every other day for 10 days, giving a total of five treatments.
384 Pin Tool: A 384 well pin tool (Rexroth) was used to transfer compounds simultaneously to the spheroid plate. Prior to compound transfer, the pin tool went through four wash cycles where pins were rinsed with dimethyl sulfoxide (DMSO), followed by methanol, then deionized (DI) water, to ensure the pins were clean. Compound transfer via the 384 well pin tool occurred after the baseline recordings with the fluorescent imaging plate reader (FLIPR). Here, 60 nL of compound suspended in DMSO was transferred to 60 µL of media in each well, diluting the compounds by 1000-fold and giving a final DMSO concentration of 0.1%.

[3] = system: PFC-like spheroids; experiment: Confocal (Phenix Plus) calcium recordings, opioid use disorder model; conditions: PFC-like spheroids expressing GCaMP6f; 10 μM DAMGO; day 21
Description: (§3) Confocal Imaging: The Opera Phenix Plus High-Content Imaging System (Perkin Elmer) spinning disk confocal was used to record calcium activity from spheroids in individual wells. Prior to recording, the stage was pre-warmed to 37° C., and the carbon dioxide was set to 5%. Recordings were obtained both from spheroids expressing GCaMP6f along with those incubated in Cal6 dye. Recordings were captured with a 20× water immersion objective […] from the bottom of the well, and were obtained at a frame rate of 1.6 frames/sec with 480 frames total, making the recordings 5-min. The protocol was set to record well to well such that recordings were automated but taken from one spheroid at a time before recording from subsequent wells. […]
(§4) For peak detection data obtained from the Phenix Plus confocal microscope, image sequences were stored in and exported from Columbus Image Data Storage and Analysis as single plane TIFFs. […] Prior to peak detection analysis, the T-function, F div F0, in ImageJ was used to obtain calcium signals normalized to background fluorescence. […] The correlation matrix was used to describe how synchronous the calcium activity within a spheroid was, and a synchrony score was measured by calculating the average correlation coefficient across the matrix. […]

[4] = system: VTA-like spheroids; experiment: as above; conditions: VTA-like spheroids expressing GCaMP6f; 10 μM DAMGO; day 21
Description: as §3, §4

[5] = system: PFC-like and VTA-like spheroids; experiment: 3D Cell Titer Glo spheroid viability; conditions: no DAMGO pre-treatment vs chronic DAMGO vs DAMGO withdrawal
Description: 3D Cell Titer Glo: To measure spheroid cell viability across disease models and after compound treatment, the CellTiter-Glo 3D Cell Viability Assay (Promega, cat #G9681) was used according to the manufacturer's instructions. CellTiter-Glo 3D Reagent was thawed overnight at 4° C. and brought to room temperature (RT) for 20-min before use. After the FLIPR assay, 30 μL of CellTiter-Glo 3D Reagent was added to the spheroid plate and was mixed by shaking for 5-min at RT followed by a 25-min incubation period off the shaker at RT (about 25° C.). Luminescence was read using a PHERAstar FSX microplate reader (BMG LabTech) to measure amount of ATP present, indicating metabolically active cells.

With `C[C@@H](NC(=O)[C@@H](N)Cc1ccc(O)cc1)C(=O)NCC(=O)N(C)[C@@H](Cc1ccccc1)C(=O)NCCO` [DAMGO, [D-Ala^2, N-MePhe^4, Gly-ol]-enkephalin] the “effect of chronic DAMGO / DAMGO withdrawal on baseline peak count, amplitude, width (FLIPR)” value [1] was “chronic DAMGO treatment increased peak count in VTA-like spheroids; also recorded: unaffected in VTA-like spheroids; also recorded: reduced in VTA-like spheroids”, the “effect on peak count and peak spacing” value ([2]; PFC-like chronic DAMGO-treated spheroids) was “chronic DAMGO-treated spheroids treated with either DMSO or DAMGO showed significant reductions in peak count” and the “effect on peak count and peak spacing” value ([2]; PFC-like control spheroids) was “significant reduction in peak count was observed in control spheroids acutely treated with DAMGO; also recorded: acute DAMGO treatment in control spheroids increased peak spacing”. For the same molecule, the “effect of chronic DAMGO / DAMGO withdrawal on baseline peak count, amplitude, width (FLIPR)” value ([2]; PFC-like spheroids in Cal6 dye, day 21) was “peak count was reduced by chronic DAMGO in PFC-like spheroids; also recorded: Peak amplitude was reduced by DAMGO withdrawal in PFC-like spheroids; also recorded: peak width was increased by chronic DAMGO in PFC-like spheroids”, the “effect of chronic DAMGO / DAMGO withdrawal on baseline peak count, amplitude, width, synchrony (confocal)” value [3] was “peak count was reduced by chronic DAMGO treatment in PFC-like spheroids; also recorded: synchrony was unaffected in PFC-like spheroids; also recorded: DAMGO withdrawal reduced peak amplitude in VTA-like but not PFC-like spheroids; also recorded: Chronic DAMGO increased peak width in PFC-like but not VTA-like spheroids; also recorded: DAMGO withdrawal did not impact peak width in either spheroid type” and the “effect of chronic DAMGO / DAMGO withdrawal on baseline peak count, amplitude, width, synchrony (confocal)” value [4] was “increased by DAMGO withdrawal in VTA-like spheroids; also recorded: DAMGO withdrawal reduced peak amplitude in VTA-like but not PFC-like spheroids; also recorded: Chronic DAMGO increased peak width in PFC-like but not VTA-like spheroids; also recorded: DAMGO withdrawal did not impact peak width in either spheroid type; also recorded: DAMGO withdrawal reduced synchrony in VTA-like spheroids”. For the same molecule, the “spheroid viability (3D CTG)” value [5] was “spheroid viability was similar”.

From patent publication US20240141291A1, “FUNCTIONAL BRAIN REGION-SPECIFIC NEURAL SPHEROIDS AND METHODS OF USE” (THE UNITED STATES OF AMERICA, AS REPRESENTED BY THE …, priority 2021, published 2024)
